Data taken from PubChem BioAssay AID2060507 (Molecular Pharmacology Branch, DTP, NCI, 2025).
Several values for one entry are separate records, joined by “and”; a condition that tells them apart may be missing. Equal entries are not always repeated. One block for each compound: values may come before it.

System: 519858-162-T-J1-PDC complex spheroid viability
Experiment: Anticancer human tumor 519858-162-T-J1-PDC patient-derived colon adenocarcinoma cell line growth inhibition [GQUAD]
Conditions: for viability, T/C: stronger effect = lower value
Source text: DNA G-quadruplex Stabilizer Agents in Combinations in Complex Spheroids
A high-throughput screen of multi-cell type tumor spheroids was designed to identify active combinations of DNA G-quadruplex stabilizer agents and targeted small molecules. Complex spheroids include a stromal component modeled by human endothelial cells (HUVEC) and fibroblasts modeled by human mesenchymal stem cells (MSCs). The concentration ranges selected for each drug and investigational agent were based upon clinically achievable concentrations if the clinical Cmax of the agent was known.
Compounds. The drugs and investigational agents: pidnarulex (CX-5461; NSC782164), APTO-253 (NSC789042), BRACO-19 (NSC847499), peposertib (NSC802822), ceralasertib (NSC780249), elimusertib (NSC800525), camonsertib (NSC841442), AZD-1390 (NSC803789), olaparib (NSC753686), talazoparib (NSC767125), ART-558 (NSC835418), sotorasib (NSC818433), MRTX-1133 (NSC836407), SN-38 (NSC673596), topotecan (NSC609699), etoposide (NSC141540), doxorubicin (NSC123127), gemcitabine (NSC613327), 5-fluorouracil (NSC19893), paclitaxel (NSC125973), vemurafenib (NSC761431), panobinostat (NSC761190), R-306465 (JNJ-16241199; NSC773264), adavosertib (NSC754352), TP-3654 (NSC805149), carboplatin (NSC241240), KSQ-4279 (NSC840948), and staurosporine (NSC755774) were obtained from the National Cancer Institute (NCI) Developmental Therapeutics Program Chemical Repository (34). The FDA-approved anticancer drug set is available from the NCI Developmental Therapeutics Program. […] The stock solutions were prepared in dimethyl sulfoxide (DMSO, Sigma-Aldrich, St. Louis, MO, cat. D2650) at 800-fold the tested concentration and stored at -70 degrees C prior to their use. All drugs and investigational agents were tested over a range starting from a high concentration at or near the clinical Cmax and decreasing in half-log increments. If the clinical Cmax for an agent had not been determined, the highest concentration tested was 10 microM.
2.3 Cell Culture. All cells were maintained in an incubator at 37 degrees C and 5% CO2 with 95% humidity. The PDC lines were cultured according to standard operating procedures established by the NCI PDMR. All PDCs were thawed and cultured in Matrigel-coated flasks prepared with a working solution of 1X Ham's F-12 nutrient mix, without supplementation (Invitrogen, cat. 11765054), 100 U/mL penicillin-streptomycin (Invitrogen, cat. 15140122), and 2.5% Matrigel (Corning Inc., cat. 354248) for the first three passages. The 857933-349-R-J2-PDC line was cultured in 6C/Colon 1B media, which includes advanced DMEM/F-12 (Thermo Fisher Scientific, cat. 12634028), 10 mM HEPES (Thermo Fisher Scientific, cat. 15630080), 1X GlutaMAX supplement (Thermo Fisher Scientific, cat. 35050061), 0.1 mg/mL primocin (InvivoGen, cat. ant-pm-2), 10% defined fetal bovine serum, heat inactivated (HyClone Laboratories Inc., cat. SH30070.03HI), 50% L-WRN conditioned media (ATCC, cat. CRL-3276), 1.25 mM N-Acetyl-L-cysteine (Sigma-Aldrich, cat. A9165), 10 mM nicotinamide (Sigma-Aldrich, cat. N0636), 1X B-27 supplement (Thermo Fisher Scientific, cat. 17504044), 1X N-2 supplement (Thermo Fisher Scientific, cat. 17502048), 10 microM Y-27632 dihydrochloride (Tocris Bioscience, cat. 1254), and 50 ng/mL human EGF recombinant protein (Thermo Fisher Scientific, cat. PHG0311). The 485176-168-R4-J1-PDC line was cultured in Panc media, which includes all 6C/Colon 1B media components plus 100 ng/mL human FGF-10 (Thermo Fisher Scientific, cat. 100-26), 500 nM SB-431542 (Selleckchem, cat. S1067), and gastrin (Tocris, cat. 3006).
[…]
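Note: spheroids exposed to compounds for 7 days.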
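Throughout, for viability, T/C: 100% = DMSO vehicle control viability.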

- IC50 (curve of compound): > 10000 nM
Compound: O=c1[nH]cc(F)c(=O)[nH]1
- viability, T/C (compound 0.0316 µM): 91.9%
- viability, T/C (compound 0.1 µM): 115%
- viability, T/C (compound 0.316 µM): 95.7%
- viability, T/C (compound 1 µM): 107%
- viability, T/C (compound 3.16 µM): 77%
- viability, T/C (compound 10 µM): 80.2%

- IC50 (curve of compound): > 10000 nM
Compound: Nc1ccn(C2OC(CO)C(O)C2(F)F)c(=O)n1 (stereo unspecified)
- viability, T/C (compound 0.0316 µM): 78.1%
- viability, T/C (compound 0.1 µM): 91.4%
- viability, T/C (compound 0.316 µM): 92.2%
- viability, T/C (compound 1 µM): 94.6%
- viability, T/C (compound 3.16 µM): 96.3%
- viability, T/C (compound 10 µM): 79%

- IC50 (curve of compound): > 10000 nM and 3340 nM
Compound: CC1COCCN1c1cc(C2(O)CC3CCC(C2)O3)c2cnn(-c3ccn[nH]3)c2n1 (stereo unspecified)
- viability, T/C (compound 0.0316 µM): 109% and 94.9%
- viability, T/C (compound 0.1 µM): 107% and 101%
- viability, T/C (compound 0.316 µM): 89.3% and 63%
- viability, T/C (compound 1 µM): 70.9% and 74%
- viability, T/C (compound 3.16 µM): 93.6% and 47.8%
- viability, T/C (compound 10 µM): 66.3% and 38%

- IC50 (curve of compound): > 10000 nM
Compound: CCCS(=O)(=O)Nc1ccc(F)c(C(=O)c2c[nH]c3ncc(-c4ccc(Cl)cc4)cc23)c1F
- viability, T/C (compound 0.0316 µM): 88.3%
- viability, T/C (compound 0.1 µM): 112%
- viability, T/C (compound 0.316 µM): 114%
- viability, T/C (compound 1 µM): 97.1%
- viability, T/C (compound 3.16 µM): 125%
- viability, T/C (compound 10 µM): 103%

The remaining lines, values behind:

Compound: C=CC(=O)N1CCN(c2nc(=O)n(-c3c(C)ccnc3C(C)C)c3nc(-c4c(O)cccc4F)c(F)cc23)C(C)C1 (stereo unspecified) + Cc1cnc(CNC(=O)c2c(=O)c3ccc(N4CCCN(C)CC4)nc3n3c2sc2ccccc23)cn1
- IC50 (curve of first compound, second compound 0.0316 µM): > 10000 nM
- IC50 (curve of first compound, second compound 0.1 µM): > 10000 nM
- IC50 (curve of first compound, second compound 0.316 µM): > 10000 nM
- IC50 (curve of first compound, second compound 1 µM): 2440 nM
- IC50 (curve of first compound, second compound 3.16 µM): < 31.6 nM
- IC50 (curve of first compound, second compound 10 µM): 72.9 nM
- viability, T/C (second compound 0.0316 µM, first compound 0.0316 µM): 74.2%
- viability, T/C (second compound 0.0316 µM, first compound 0.1 µM): 91.8%
- viability, T/C (second compound 0.0316 µM, first compound 0.316 µM): 77.1%
- viability, T/C (second compound 0.0316 µM, first compound 1 µM): 89.3%
- viability, T/C (second compound 0.0316 µM, first compound 3.16 µM): 46.3%
- viability, T/C (second compound 0.0316 µM, first compound 10 µM): 103%
- viability, T/C (second compound 0.1 µM, first compound 0.0316 µM): 97%
- viability, T/C (second compound 0.1 µM, first compound 0.1 µM): 70.4%
- viability, T/C (second compound 0.1 µM, first compound 0.316 µM): 109%
- viability, T/C (second compound 0.1 µM, first compound 1 µM): 92.3%
- viability, T/C (second compound 0.1 µM, first compound 3.16 µM): 76.3%
- viability, T/C (second compound 0.1 µM, first compound 10 µM): 82.9%
- viability, T/C (second compound 0.316 µM, first compound 0.0316 µM): 54.2%
- viability, T/C (second compound 0.316 µM, first compound 0.1 µM): 53%
- viability, T/C (second compound 0.316 µM, first compound 0.316 µM): 55.9%
- viability, T/C (second compound 0.316 µM, first compound 1 µM): 57%
- viability, T/C (second compound 0.316 µM, first compound 3.16 µM): 65.2%
- viability, T/C (second compound 0.316 µM, first compound 10 µM): 76.6%
- viability, T/C (second compound 1 µM, first compound 0.0316 µM): 69.1%
- viability, T/C (second compound 1 µM, first compound 0.1 µM): 56.3%
- viability, T/C (second compound 1 µM, first compound 0.316 µM): 68.2%
- viability, T/C (second compound 1 µM, first compound 1 µM): 56.9%
- viability, T/C (second compound 1 µM, first compound 3.16 µM): 40.3%
- viability, T/C (second compound 1 µM, first compound 10 µM): 45.5%
- viability, T/C (second compound 3.16 µM, first compound 0.0316 µM): 46.5%
- viability, T/C (second compound 3.16 µM, first compound 0.1 µM): 49.6%
- viability, T/C (second compound 3.16 µM, first compound 0.316 µM): 41.8%
- viability, T/C (second compound 3.16 µM, first compound 1 µM): 55.8%
- viability, T/C (second compound 3.16 µM, first compound 3.16 µM): 56%
- viability, T/C (second compound 3.16 µM, first compound 10 µM): 42.9%
- viability, T/C (second compound 10 µM, first compound 0.0316 µM): 60%
- viability, T/C (second compound 10 µM, first compound 0.1 µM): 46.4%
- viability, T/C (second compound 10 µM, first compound 0.316 µM): 42.8%
- viability, T/C (second compound 10 µM, first compound 1 µM): 48.2%
- viability, T/C (second compound 10 µM, first compound 3.16 µM): 48.7%
- viability, T/C (second compound 10 µM, first compound 10 µM): 42.8%

Compound: Cc1[nH]c2ccccc2c1CCNCc1ccc(/C=C/C(=O)NO)cc1
- viability, T/C (compound 0.000999 µM): 94.4%
- viability, T/C (compound 0.00316 µM): 108%
- viability, T/C (compound 0.00999 µM): 74.3%
- viability, T/C (compound 0.0316 µM): 107%
- viability, T/C (compound 0.0999 µM): 75.5%
- viability, T/C (compound 0.316 µM): 50.6%
- IC50 (curve of compound): > 316 nM

Compound: O=C(NO)c1cnc(N2CCN(S(=O)(=O)c3ccc4ccccc4c3)CC2)nc1
- viability, T/C (compound 0.0316 µM): 97.8% and 112%
- viability, T/C (compound 0.1 µM): 76.5% and 58.8%
- viability, T/C (compound 0.316 µM): 25.8% and 37.5%
- viability, T/C (compound 1 µM): 9.47% and 14.6%
- viability, T/C (compound 3.16 µM): 0.68% and 0.35%
- viability, T/C (compound 10 µM): 0.51% and 0.58%
- IC50 (curve of compound): 184 nM and 162 nM

Compound: CC[C@@]1(O)C(=O)OCc2c1cc1n(c2=O)Cc2cc3c(CN(C)C)c(O)ccc3nc2-1
- viability, T/C (compound 0.000999 µM): 86.1% and 63.7%
- viability, T/C (compound 0.00316 µM): 69.6% and 123%
- viability, T/C (compound 0.00999 µM): 93.4% and 97%
- viability, T/C (compound 0.0316 µM): 141% and 107%
- viability, T/C (compound 0.0999 µM): 90.9% and 92.7%
- viability, T/C (compound 0.316 µM): 75.1% and 69.3%
- IC50 (curve of compound): > 316 nM
